IC50 and inhibition data for one molecule are collected here from PMC5444695, “CM363, a novel naphthoquinone derivative which acts as multikinase modulator and overcomes imatinib resistance in chronic myelogenous leukemia” (Oncotarget, 2016).

Usually inhibition stands for the percentage by which the read-out fell short of the control. Low readings indicate a response near the control, high ones a response far below the control.

SMILES strings stand for the structures. Counter-ions that a name gives are not always drawn.

The test system of one assay is K562 cells. In words: Live-cell imaging (IncuCyte HD) of proliferation and cytotoxicity, K562 cells. The format is cell-based, human. To be noted: Homo sapiens, 96 h; IM sensitive K562, continuous exposure over 4-day period, area under curve; read-out: IC50AUC, cytostatic effect on cell growth. How it is done:
Kinetic measurements of cell proliferation and cytotoxicity were carried out by using the IncuCyte^TM HD real time imaging system (Essen BioScience, Hertfordshire, United Kingdom). After seeding in a polylysine-coated 96 well-plates, K562 cells were treated with different concentrations of compound. This IncuCyte™ microscope permits the acquisition of automated phase contrast images. Individual images are processed by an imbedded contrast-based confluence algorithm, which compute monolayer confluence for each image and at each time point. Multiple images are collected per well and averaged to provide a representative statistical measure of confluence.

In a further assay the test system is pTyr694-Stat5 (pYStat5). In words: Immunoblotting of constitutive pYStat5 in K562 cells. To be noted: Homo sapiens; K562, 0.05 μM IM, 3 h. The format is cell-based. On the procedure:
Then, cells were rinsed with cold PBS-vanadate (1 mM) followed by preparation of whole lysis extract with RIPA (Pierce, Illinois, USA). Equal amounts of each sample were separated by SDS-PAGE and transfered onto nitrocellulose membranes. After being blocked with 1% BSA-1% Blotto (anti-phospho-antibodies) (Santa Cruz Biotechnology, CA, USA) or 5% blotto (anti-total-antibodies) (Santa Cruz Biotechnology, CA, USA) (both diluted in Tris buffered saline with 0.05% Tween 20), membranes were immunoblotted overnight at 4°C with dilution (1:1000) in the same buffer of blocking of primary phosphoprotein or total protein antibodies. […] To control for differences in loading and transfer efficiency across membranes, membranes were incubated with a monoclonal mouse anti-beta actin antibody (Santa Cruz Biotechnology, CA, USA). The phosphoprotein array analysis of K562 cells was carried out by using the Profiler Human Phospho-Kinase Array Kit ARY003B (R&D Systems, Minneapolis, MN, USA) according to the manufacturer`s instructions.
A general note: A western blot detects proteins with antibodies after separation by electrophoresis.

Turning to `Cc1ccc(NC(=O)c2ccc(CN3CCN(C)CC3)cc2)cc1Nc1nccc(-c2cccnc2)n1` [IM, imatinib mesylate, reference compound], the IC50 in the assay with K562 cells stood at 200 ± 100 nM. Further, the inhibition at 0.05 µM in the assay on pTyr694-Stat5 (pYStat5) came to 40%.
